From PubChem BioAssay (NCI) come the findings set out here.

Test systems include CAKI-1 renal; DU-145 prostate; HL-60(TB) leukemia; HOP-92 NSCLC; OVCAR-4 ovarian; SK-MEL-5 melanoma; SK-OV-3 ovarian; SN12C renal; SR leukemia.
Holding throughout (assay): growth of human tumour cells (NCI), 48 h

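1) Cells in 96-well plates. 2) Compound, 48 h, 5 concentrations. 3) Linear interpolation between surrounding doses. 4) Unreached endpoint = highest concentration. Here, GI50 denotes the concentration required for 50% inhibition of growth. TGI denotes the concentration required for complete inhibition of growth.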 Bounds are passed on as bounds.

For the compound `O=C1NC(=NCCc2ccccn2)S/C1=C\c1ccc2ncccc2c1`, the GI50 was 6.94 µM with CAKI-1 renal; 11.7 µM in the assay with DU-145 prostate; 7.66 µM in the assay with HL-60(TB) leukemia; 9.33 µM in the assay with HOP-92 NSCLC; 14.1 µM in the assay on OVCAR-4 ovarian; 10.8 µM in the assay with SK-MEL-5 melanoma. Moreover, the GI50 in the assay with SK-OV-3 ovarian was 9.1 µM; in the assay with SN12C renal it was 9.33 µM; in the assay with SR leukemia, 4.21 µM. Besides, the TGI in the assay with CAKI-1 renal was above 21.7 µM; in the assay with DU-145 prostate, above 25 µM; with HL-60(TB) leukemia, above 25 µM; with HOP-92 NSCLC it was above 25 µM; in the assay with OVCAR-4 ovarian, above 25 µM; in the assay on SK-MEL-5 melanoma, above 25 µM. Also, the TGI with SK-OV-3 ovarian is above 25 µM; in the assay on SN12C renal it was above 25 µM; in the assay on SR leukemia it was 14 µM.
On to `COc1ccc(-c2[nH]nc(N)c2-c2cc(OC)c(OC)c(OC)c2)cc1`, for which the GI50 is 0.0506 µM in the assay on CAKI-1 renal; 0.0354 µM in the assay on DU-145 prostate; 0.0236 µM in the assay on HL-60(TB) leukemia; 0.148 µM in the assay on HOP-92 NSCLC; 1.62 µM in the assay with OVCAR-4 ovarian; 0.0381 µM in the assay on SK-MEL-5 melanoma. The values for the GI50 with SK-OV-3 ovarian, in the assay with SN12C renal and with SR leukemia were 0.0417 µM, 0.0716 µM and 0.0285 µM, respectively. The TGI in the assay with CAKI-1 renal was 47.3 µM; in the assay with DU-145 prostate, 1.76 µM; with HL-60(TB) leukemia, 0.0622 µM; in the assay on HOP-92 NSCLC, 19.7 µM; with OVCAR-4 ovarian it was above 100 µM; in the assay on SK-MEL-5 melanoma it was 0.725 µM. The TGI with SK-OV-3 ovarian is 2.2 µM; with SN12C renal, above 57.4 µM; in the assay with SR leukemia, above 42 µM.
For `COc1cc(C2CC(=O)Nc3c2c(C)nn3-c2nc3ccccc3[nH]2)cc(OC)c1O` (stereo unspecified), the GI50 in the assay with CAKI-1 renal is 2.36 µM; with DU-145 prostate it was 4.98 µM; with HL-60(TB) leukemia, 3.05 µM; in the assay on HOP-92 NSCLC it was 2.8 µM; with OVCAR-4 ovarian, 2.43 µM; with SK-MEL-5 melanoma, 1.83 µM. For the same compound, the GI50 with SK-OV-3 ovarian is 2.7 µM; in the assay on SN12C renal, 3.98 µM; with SR leukemia, 3.35 µM. In addition, the TGI in the assay on CAKI-1 renal was 5.44 µM; in the assay on DU-145 prostate, 40.3 µM; in the assay with HL-60(TB) leukemia it was 16.8 µM; with HOP-92 NSCLC, 8.81 µM; with OVCAR-4 ovarian, 11.4 µM; in the assay on SK-MEL-5 melanoma, 3.62 µM. Also, the TGI in the assay with SK-OV-3 ovarian is 5.9 µM; in the assay on SN12C renal it was above 72.3 µM; in the assay on SR leukemia, 14.5 µM.
Take `C=CCOC(=O)Nc1cccn([C@H](CC(C)C)C(=O)NCCC(C)C)c1=O`: the GI50 was 29 µM in the assay with CAKI-1 renal; above 100 µM with DU-145 prostate; 58.9 µM in the assay on HL-60(TB) leukemia; 2.67 µM in the assay on HOP-92 NSCLC; 28.1 µM in the assay on OVCAR-4 ovarian; 74.7 µM in the assay on SK-MEL-5 melanoma. The GI50 in the assay on SK-OV-3 ovarian was above 100 µM; in the assay on SN12C renal it was above 100 µM; in the assay with SR leukemia, 72.7 µM. Besides, the TGI is above 100 µM with CAKI-1 renal; above 100 µM with DU-145 prostate; above 100 µM in the assay with HL-60(TB) leukemia; 57.8 µM in the assay with HOP-92 NSCLC; above 100 µM in the assay on OVCAR-4 ovarian; above 100 µM in the assay with SK-MEL-5 melanoma. Further, the TGI in the assay on SK-OV-3 ovarian, in the assay on SN12C renal and with SR leukemia was above 100 µM throughout.
Regarding `OCC1CCCC1O` (stereo unspecified), the TGI with CAKI-1 renal, in the assay on DU-145 prostate, with HL-60(TB) leukemia, in the assay with HOP-92 NSCLC, in the assay with OVCAR-4 ovarian and in the assay with SK-MEL-5 melanoma was above 100 µM each time. Also, the TGI in the assay with SN12C renal and with SR leukemia was above 100 µM throughout.
For `COc1cc(/C=C/C(=O)c2c(-c3ccc(F)cc3)nc3sc(C)nn23)cc(OC)c1OC`, the GI50 in the assay on CAKI-1 renal is 3.27 µM; in the assay with DU-145 prostate, 2.91 µM; in the assay on HL-60(TB) leukemia, 2.44 µM; with HOP-92 NSCLC it was 1.6 µM; in the assay with OVCAR-4 ovarian it was 3.61 µM; with SK-MEL-5 melanoma it was 1.86 µM. Besides, the GI50 was 2.99 µM in the assay with SK-OV-3 ovarian, 2.48 µM with SN12C renal and 1.77 µM with SR leukemia. For the same compound, the TGI was determined as 18.2 µM with CAKI-1 renal; 10.4 µM with DU-145 prostate; 6.17 µM with HL-60(TB) leukemia; 8.64 µM in the assay on HOP-92 NSCLC; 85.6 µM in the assay with OVCAR-4 ovarian; 3.99 µM with SK-MEL-5 melanoma. Besides, the TGI in the assay with SK-OV-3 ovarian was determined as 8.91 µM; in the assay with SN12C renal, 8.65 µM; with SR leukemia it was 5.27 µM.
Consider `O=[N+]([O-])c1ccc2c(c1)C(c1ccccc1Cl)=Nc1c(n[nH]c1-c1cccnc1)N2`, for which the GI50 with CAKI-1 renal is above 25 µM; with DU-145 prostate, above 25 µM; in the assay on HL-60(TB) leukemia, above 25 µM; in the assay on HOP-92 NSCLC, above 25 µM; in the assay on OVCAR-4 ovarian, above 19.8 µM; in the assay on SK-MEL-5 melanoma, above 25 µM. Besides, the GI50 with SK-OV-3 ovarian, in the assay with SN12C renal and in the assay on SR leukemia was above 25 µM each time. Further, the TGI in the assay on CAKI-1 renal, in the assay with DU-145 prostate, with HL-60(TB) leukemia, in the assay on HOP-92 NSCLC, with OVCAR-4 ovarian and in the assay with SK-MEL-5 melanoma was above 25 µM in each case. Moreover, the TGI in the assay on SK-OV-3 ovarian, in the assay with SN12C renal and with SR leukemia was above 25 µM throughout.
